We go through 13 compounds from patent US20230322745A1, “FUSED TRICYCLIC DERIVATIVE AND PHARMACEUTICAL APPLICATION THEREOF” (CHIA TAI TIANQING PHARMACEUTICAL GROUP CO., LTD., priority 2020, published 2023).

Each structure is given as a SMILES string. Counter-ions that a name gives are not always drawn. Like-named read-outs stand apart in the source and are kept apart here.

Data set [1] deals with β1 receptor (cells expressing human ADRB1 gene) (Homo sapiens (Human), UniProt P08588). Kind of data set: Agonistic effect on β1 receptor by HTRF cAMP method. Format: cell-based. How it is done: β1 receptor is a G protein-coupled receptor, which is mainly coupled with Gs protein, and can activate adenylate cyclase activity through the Gs protein after being activated by binding to the ligand, thereby increasing the level of intracellular cAMP. In this experiment, the agonistic activity of the compounds against the β1 receptor in vitro was assayed by the cAMP kit.
Chain of β1 receptor (cells expressing human ADRB1 gene) (P08588 whole entry): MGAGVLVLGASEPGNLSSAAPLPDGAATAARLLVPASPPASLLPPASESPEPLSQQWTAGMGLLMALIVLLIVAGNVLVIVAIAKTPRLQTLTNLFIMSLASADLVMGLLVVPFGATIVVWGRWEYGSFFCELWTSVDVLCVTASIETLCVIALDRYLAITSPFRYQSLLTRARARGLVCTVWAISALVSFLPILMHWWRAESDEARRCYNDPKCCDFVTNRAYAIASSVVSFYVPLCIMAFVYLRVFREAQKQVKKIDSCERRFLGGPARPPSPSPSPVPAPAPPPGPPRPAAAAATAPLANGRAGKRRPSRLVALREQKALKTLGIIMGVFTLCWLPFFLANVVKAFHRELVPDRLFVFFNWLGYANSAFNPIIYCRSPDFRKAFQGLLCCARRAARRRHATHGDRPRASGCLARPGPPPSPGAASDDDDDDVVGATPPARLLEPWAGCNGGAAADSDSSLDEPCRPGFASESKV
(§1) β1 cells (expressing human ADRB1 gene) from ICE Bioscience Inc. were grown under standard conditions. The cells were collected and diluted with 1× Stimulation Buffer, and 9 μL of the cell dilution was added to a white low-volume 384-well plate with 4000 cells seeded in each well. Compounds were serially diluted in DMSO in a 5-fold gradient to obtain 10 concentrations. Before testing, compounds that had been serially diluted in DMSO were subjected to 100-fold dilution with 1× Stimulation Buffer to obtain compound working solutions. The concentration of the vehicle DMSO was 0.1%. Eu-cAMP and ULight™-anti-cAMP were diluted to the working concentration with Detection buffer. 5 μL of Eu-cAMP diluent and 5 μL of ULight™-anti-cAMP diluent were sequentially added into corresponding experiment wells. After 1 h of incubation at room temperature, readings at 665 nm and 620 nm were measured under the excitation wavelength of 330 nm using a Biotek microplate reader. The activity of the compounds was obtained by plotting through Ratio (665/620) against the concentration of the compounds, fitting the curve by a nonlinear regression method using GraphPad Prism 7 software and calculating EC50.
Background: Time-resolved FRET reads energy transfer from a long-lived donor to a nearby acceptor.

Data set [2] can be described thus: Pharmacokinetic evaluation in SD rats. The note with it: male, rat, plasma. Type of data set: in vivo. As for the experimental part: To test pharmacokinetics of test compounds in SD rats
SD rats (male, 200-250 g, 7-9 weeks old, Beijing Vital River Laboratory Animal Technology Co., Ltd.)
A formulation containing 10% aqueous HPβCD solution as a vehicle was administered by intravenous injection (2 mpk), and a formulation containing 10% aqueous HPβCD solution as a vehicle was administered by intra-tracheal administration (5 mpk) with a nebulizer needle. Before the animal experiment, all animals were fed normally; and all animals were given free access to water. Blood collection time points were as follows: intravenous administration group: 0.083 h, 0.25 h, 0.5 h, 1 h, 2 h, 4 h, 8 h, and 24 h; nebulizer needle administration group: 0.083 h, 0.25 h, 0.5 h, 1 h, 2 h, 4 h, 8 h, and 24 h.
Whole blood samples (0.25 mL) were collected via the jugular vein (or other suitable collection site) at prescribed time points, and all blood samples were added to labeled plastic centrifuge tubes containing a K2-EDTA anticoagulant. After blood collection, plasma was separated by centrifugation and placed in dry ice rapidly, and the samples were stored at low temperature. All samples were analyzed by LC-MS/MS with a limit of detection of 4 nM. The mean concentration of plasma was processed using a non-compartmental model of the pharmacokinetic software WinNonlin™ Version 6.3 (Pharsight, Mountain View, CA), and pharmacokinetic parameters were calculated by a linear log-trapezoidal method.

Data set [3] addresses M3 receptor (Homo sapiens (Human), UniProt P20309). Kind of data set: M3 receptor affinity test (3H-NMS competition). Format: binding. How it is done:
M3 receptor is a G protein-coupled receptor. In this experiment, the activity of test compounds against the M3 receptor in vitro was assayed by the competition of radioisotope labeled NMS and non-isotope labeled test compounds for an M3 binding site.
(§2) The experiment was performed by a radioisotope affinity assay. The M3 receptor membrane protein was prepared at 10 μg/mL by Biology Department of WuXi AppTec, and compounds were serially diluted in a 2.5-fold gradient in DMSO to obtain 10 concentrations. Radioisotope 3H-NMS was prepared at 0.2 nM in an assay buffer (10 mM HEPES, 1 mM MgCl2, pH 7.40). In formal testing, the experimental system comprising 1 of the test compound, 100 μL of M3 receptor membrane protein and 100 μL of radioisotope was shaken in a shaker at 300 RPM for 2 h at room temperature. A GF/C plate (Perkin Elmer, Cat No. 6055690) was prefoamed with 0.3% PEI, and the membrane proteins in the reaction solution were collected by filtration onto the GF/C plate. The signal values were read by a Perkin Elmer Microbeta2 instrument and the inhibition rate for each concentration point was shown as a percentage.

Data set [4] concerns the target β2 receptor (cells expressing human ADRB2 gene) (Homo sapiens (Human), UniProt P07550). The experiment in a line: Agonistic effect on β2 receptor by HTRF cAMP method. Format: cell-based. As for the experimental part:
β2 receptor is a G protein-coupled receptor, which is mainly coupled with Gs protein, and can activate adenylate cyclase activity through the Gs protein after being activated by binding to the ligand, thereby increasing the level of intracellular cAMP. In this experiment, the agonistic activity of the compounds against the β2 receptor in vitro was assayed by the cAMP kit.
as §1, with “β2” for “β1”, “ADRB2” for “ADRB1”, “1000” for “4000”

Data set [5] addresses M2 receptor (Homo sapiens (Human), UniProt P08172). Kind of data set: M2 receptor affinity test (3H-NMS competition). Format: binding. As for the experimental part: M2 receptor is a G protein-coupled receptor. In this experiment, the activity of test compounds against the M2 receptor in vitro was assayed by the competition of radioisotope labeled NMS and non-isotope labeled test compounds for an M2 binding site.
as §2, with “The M2 receptor membrane” for “The experiment was performed by a radioisotope affinity assay. The M3 receptor membrane”, “prepared at 100 μg/mL by” for “prepared at 10 μg/mL by”, “comprising 1 μL of the” for “comprising 1 of the”, “μL of M2 receptor membrane” for “μL of M3 receptor membrane”

Where [6] appears, read: read-out: IC50, activity against the M3 receptor in vitro.
The mark [7] stands for this setting: HTRF cAMP, 1 h incubation at room temperature, read-out: EC50, agonistic activity against the β2 receptor in vitro.

Chain of M3 receptor (P20309 whole entry): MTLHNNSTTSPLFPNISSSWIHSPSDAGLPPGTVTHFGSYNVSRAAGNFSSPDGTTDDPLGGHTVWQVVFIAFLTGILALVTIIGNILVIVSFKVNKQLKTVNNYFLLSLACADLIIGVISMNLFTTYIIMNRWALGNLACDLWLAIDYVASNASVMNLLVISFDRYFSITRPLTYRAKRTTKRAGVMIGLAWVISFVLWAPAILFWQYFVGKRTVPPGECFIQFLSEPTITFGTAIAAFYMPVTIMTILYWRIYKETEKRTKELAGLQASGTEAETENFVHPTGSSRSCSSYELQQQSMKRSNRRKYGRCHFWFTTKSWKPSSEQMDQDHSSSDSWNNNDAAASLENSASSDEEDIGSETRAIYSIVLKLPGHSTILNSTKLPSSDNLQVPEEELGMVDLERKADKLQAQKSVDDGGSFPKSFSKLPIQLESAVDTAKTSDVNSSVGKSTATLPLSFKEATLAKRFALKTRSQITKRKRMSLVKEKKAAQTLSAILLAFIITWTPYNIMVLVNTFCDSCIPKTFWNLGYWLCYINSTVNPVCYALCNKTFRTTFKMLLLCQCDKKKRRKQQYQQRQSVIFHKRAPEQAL
Chain of β2 receptor (cells expressing human ADRB2 gene) (P07550 whole entry): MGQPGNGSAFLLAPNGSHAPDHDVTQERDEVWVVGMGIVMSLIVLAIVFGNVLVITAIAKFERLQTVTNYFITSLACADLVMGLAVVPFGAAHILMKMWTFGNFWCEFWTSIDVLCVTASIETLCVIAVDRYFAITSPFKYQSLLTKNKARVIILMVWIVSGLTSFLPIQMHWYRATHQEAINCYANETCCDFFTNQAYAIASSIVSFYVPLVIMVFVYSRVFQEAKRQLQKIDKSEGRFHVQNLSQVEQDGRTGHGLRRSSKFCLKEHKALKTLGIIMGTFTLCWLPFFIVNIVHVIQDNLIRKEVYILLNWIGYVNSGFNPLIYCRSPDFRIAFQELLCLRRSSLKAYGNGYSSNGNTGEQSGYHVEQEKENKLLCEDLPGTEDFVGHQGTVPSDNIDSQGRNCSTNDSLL
Chain of M2 receptor (P08172 whole entry): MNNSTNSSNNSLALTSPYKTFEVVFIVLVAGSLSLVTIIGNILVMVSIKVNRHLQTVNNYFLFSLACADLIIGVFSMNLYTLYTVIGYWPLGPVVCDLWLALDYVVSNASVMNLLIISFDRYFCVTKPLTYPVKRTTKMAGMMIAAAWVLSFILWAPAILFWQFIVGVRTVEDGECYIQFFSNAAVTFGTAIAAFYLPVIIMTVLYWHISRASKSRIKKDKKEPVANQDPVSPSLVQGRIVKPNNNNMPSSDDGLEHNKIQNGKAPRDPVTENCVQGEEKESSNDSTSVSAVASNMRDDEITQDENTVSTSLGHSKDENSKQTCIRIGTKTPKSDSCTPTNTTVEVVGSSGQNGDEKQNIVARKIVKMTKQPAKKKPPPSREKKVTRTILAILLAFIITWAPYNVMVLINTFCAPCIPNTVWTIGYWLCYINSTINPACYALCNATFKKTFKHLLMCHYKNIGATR

Turning to `C[N+]1(CCCn2nnc3cc(CNC[C@H](O)c4ccc(O)c5[nH]c(=O)ccc45)c4c(c32)CCC4)CCC(OC(=O)C(O)(c2cccs2)c2cccs2)CC1` (stereo partly shown) [Hydrobromide salt of compound 30], the EC50 (as a rule, the midpoint of the concentration-response curve) in data set [1] came out at 94.9 nM.

Consider `CN(CCCn1nnc2cc(CNC[C@H](O)c3ccc(O)c4[nH]c(=O)ccc34)ccc21)[C@H]1CC[C@H](OC(=O)C(O)(c2cccs2)c2cccs2)CC1` [Hydrofluoride salt of AZD8871, reference compound], for which the clearance in data set [2] (2 mg/kg, intravenous injection 2 mpk, 10% aqueous HPβCD, read-out: Clearance rate for administration by intravenous injection) came to 35 mL/min/kg. Moreover, the AUC is 1.27 µM·h in data set [2] (2 mg/kg, intravenous injection 2 mpk, 10% aqueous HPβCD, read-out: Concentration integration AUC for administration by intravenous injection) and 2.44 µM·h in data set [2] (inhaled or intranasal, 5 mg/kg, intra-tracheal 5 mpk, 10% aqueous HPβCD, read-out: Concentration integration AUC for intra-tracheal administration with a nebulizer needle). Also, the bioavailability in data set [2] (inhaled or intranasal, 5 mg/kg, intra-tracheal 5 mpk vs intravenous 2 mpk, read-out: Bioavailability F for intra-tracheal administration with a nebulizer needle) came out at 76.7%. For the same compound, the half-life in data set [2] (inhaled or intranasal, 5 mg/kg, intra-tracheal 5 mpk, 10% aqueous HPβCD, read-out: Half life T1/2 for intra-tracheal administration with a nebulizer needle (converted)) is 30.9 min.

In the case of `Cn1ncc2c(CNC[C@H](O)c3ccc(O)c4[nH]c(=O)ccc34)cc3nnn(CCCN(C)[C@H]4CC[C@H](OC(=O)C(O)(c5cccs5)c5cccs5)CC4)c3c21` [Compound 11], the IC50 (commonly the concentration that gives 50% inhibition) in data set [3] (setting [6]) worked out at 0.638 nM. Moreover, the EC50 in data set [1] amounted to 33.7 nM; in data set [4] (setting [7]), 1.12 nM.

For `CN(CCCn1cnc2cc(CNC[C@H](O)c3ccc(O)c4[nH]c(=O)ccc34)c3c(c21)CCC3)[C@H]1CC[C@H](OC(=O)C(O)(c2cccs2)c2cccs2)CC1` [Formate salt of compound 41], the IC50 in data set [3] stood at 0.201 nM; in data set [5], 0.268 nM. The EC50 turned out to be 229 nM in data set [1] and 13.8 nM in data set [4].

With `O=C(OC1CC2(CCN(CCCn3nnc4cc(CNC[C@H](O)c5ccc(O)c6[nH]c(=O)ccc56)c5c(c43)CCC5)CC2)C1)C(O)(c1ccc(Cl)s1)c1ccc(Cl)s1` [Formate salt of compound 19], the IC50 in data set [3] (setting [6]) stood at 0.281 nM. Further, the EC50 in data set [1] worked out at 1440 nM; in data set [4] (setting [7]), 5.14 nM.

`CN(CCCn1nnc2cc(CNC[C@H](O)c3ccc(O)c4[nH]c(=O)ccc34)c3c(c21)OCCO3)[C@H]1CC[C@H](OC(=O)C(O)(c2cccs2)c2cccs2)CC1` [Formate salt of compound 12]: the EC50 in data set [1] turned out to be 127 nM; in data set [4] (setting [7]), 2.04 nM.

For the compound `O=C(OC1CCC2(CC1)CN(CCCn1nnc3cc(CNC[C@H](O)c4ccc(O)c5[nH]c(=O)ccc45)c4c(c31)CCC4)C2)C(O)(c1cccs1)c1cccs1` [Formate salt of compound 4], the half-inhibitory concentration (IC50) in data set [3] (setting [6]) turned out to be 0.343 nM. The EC50 came out at 304 nM in data set [1] and 2.15 nM in data set [4] (setting [7]).

On to `Cc1ccc(C(O)(C(=O)C[C@H]2CC[C@H](N(C)CCCn3nnc4cc(CNC[C@H](O)c5ccc(O)c6[nH]c(=O)ccc56)c5c(c43)CCC5)CC2)c2ccc(C)s2)s1` [Formate salt of compound 32], for which the IC50 in data set [3] (0.2 nM 3H-NMS, M3 receptor membrane protein, 2 h at room temperature, read-out: IC50, activity against the M3 receptor in vitro) turned out to be 1.2 nM; in data set [5] (0.2 nM 3H-NMS, M2 receptor membrane protein, 2 h at room temperature, read-out: IC50, activity against the M2 receptor in vitro) it was 0.814 nM. For the same compound, the EC50 in data set [1] (HTRF cAMP, 1 h incubation at room temperature, read-out: EC50, agonistic activity against the β1 receptor in vitro) is 145 nM; in data set [4] (setting [7]) it was 1.57 nM.

As to `O=C(OCC1(O)CCN(CCCn2nnc3cc(CNC[C@H](O)c4ccc(O)c5[nH]c(=O)ccc45)c4c(c32)CCC4)CC1)C(O)(c1cccs1)c1cccs1` [Formate salt of compound 31], the IC50 in data set [3] (setting [6]) came out at 0.655 nM.

`CN(CCCn1nnc2cc(CNC[C@H](O)c3ccc(O)c4[nH]c(=O)ccc34)c3c(c21)COC3)[C@H]1CC[C@H](OC(=O)C(O)(c2cccs2)c2cccs2)CC1` [Formate salt of compound 40]: the IC50 is 0.363 nM in data set [3] and 0.228 nM in data set [5]. Also, the figures for the EC50 in data set [1] and in data set [4] were 56.7 nM and 2.8 nM, respectively.

For the compound `CN(CCCn1nnc2cc(CNC[C@H](O)c3ccc(O)c4[nH]c(=O)ccc34)c3c(c21)OCO3)[C@H]1CC[C@H](OC(=O)C(O)(c2cccs2)c2cccs2)CC1` [Formate salt of compound 33], the IC50 stood at 0.494 nM in data set [3] and 0.153 nM in data set [5]. For the same compound, the EC50 was 53.1 nM in data set [1] and 0.742 nM in data set [4].

Consider `O=C(OC1CC2(C1)CN(CCCn1nnc3cc(CNC[C@H](O)c4ccc(O)c5[nH]c(=O)ccc45)c4c(c31)CCC4)C2)C(O)(c1cccs1)c1cccs1` [Formate salt of compound 2], for which the IC50 in data set [3] (setting [6]) turned out to be 0.347 nM. The EC50 was 157 nM in data set [1] and 0.889 nM in data set [4] (setting [7]).

On to `CN(CCCn1nnc2cc(CNC[C@H](O)c3ccc(O)c4[nH]c(=O)ccc34)c3c(c21)CCC3)[C@H]1CC[C@H](OC(=O)C(O)(c2ccc(Cl)s2)c2ccc(Cl)s2)CC1` [Trifluoroacetate salt of compound 10], for which the 50% inhibitory concentration (IC50) in data set [3] (setting [6]) was 1.27 nM. The EC50 came out at 269 nM in data set [1] and 1.36 nM in data set [4] (setting [7]).
